# Laboratory results reported in US20020010317A1, “Method for generating immunogens that elicit neutralizing antibodies against fusion-active regions of HIV envelope proteins” (priority 2000, published 2002).
# Key:
# [1] = test system: HIV-1 envelope mediated cell-cell fusion; settings: cited from earlier work
# gp41 (HXB2 strain) = gp41 (HXB2 strain) (Human immunodeficiency virus type 1 group M subtype B, UniProt P04578)
# [2] = test system: divergent HIV-1 virus isolates; experiment: immunization of guinea pigs with P-18, neutralizing antibody response; assay type: in vivo, guinea pig; settings: two of three animals; 100 μg intramuscularly in Freund's adjuvant
# Description: Antibody binding assays can be used to determine the ability of the immunogen vaccines to generate an immune response to various forms of envelope (native vs. denatured). Virus neutralization assays can be used to characterize the antibody response raised against the gp41 domains. The most encouraging results have been from animals immunized with the peptide P-18 modeling the C-helix entry domain (amino acid residues 643-678 of gp41 ).
# Guinea pigs were immunized intramuscularly with 100 μg of P-18 formulated in either Freund's complete (prime) or incomplete (boost) adjuvant. Animals were immunized on days 0, 21, 34, 48 and 62. Blood was collected on days 44,58 and 72. In our initial screen, sera at a 1:10 dilution were tested for the ability to inhibit virus-induced cell killing. In these assays, two of the three animals receiving the P-18 peptide (guinea pigs 233 and 234) were able to block the cytopathic effects of a pair of prototypic HIV-1 isolates. Against the MN isolate, >80% protection was achieved, while against the RF isolate, protection was >50%.
# gp41 (HXB2 strain), sequence (P04578 512-856): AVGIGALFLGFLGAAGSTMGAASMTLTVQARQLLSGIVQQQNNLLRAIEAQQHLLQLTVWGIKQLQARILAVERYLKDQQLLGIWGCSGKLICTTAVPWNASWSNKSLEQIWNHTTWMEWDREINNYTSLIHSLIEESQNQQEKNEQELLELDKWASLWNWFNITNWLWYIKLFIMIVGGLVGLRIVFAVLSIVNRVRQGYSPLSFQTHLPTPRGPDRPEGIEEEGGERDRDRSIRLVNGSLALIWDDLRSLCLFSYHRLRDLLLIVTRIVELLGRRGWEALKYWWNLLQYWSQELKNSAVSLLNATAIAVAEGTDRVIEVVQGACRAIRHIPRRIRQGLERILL
substance,measurement,setting,value
NNLLRAIEAQQHLLQLTVWQIKQLQARILAVERYLKDQ (NNLLRAIEAQQHLLQLTVWGIKQLQARILAVERYLKDQ) [DP-107],level inhibiting cell-cell fusion,[1],sub-μg/ml levels
P-18-GGG-YPYDVPDYAGPG [P-18HA],binding to and co-immunoprecipitation of gp41,gp41 (HXB2 strain),bound to and co-immunoprecipitated gp41
enfuvirtide,neutralizing antibody response in immunized animals,[2],exhibited a neutralizing antibody response against divergent virus isolates
same,concentration inhibiting envelope mediated cell-cell fusion,[1]; concentrations as low as,about 1 ng/ml
